Holding throughout (test): DTP human tumour cell line panel, 48 h
Test [1] has as its system EKVX NSCLC.
Test [2] deals with SK-MEL-2 melanoma.
Test [3] deals with OVCAR-4 ovarian.
Test [4] relates to SR leukemia.
Test [5] has as its system M19-MEL melanoma.
Test [6] concerns HCC-2998 colon.
For test [7], the system named is LXFL 529 NSCLC.
Test [8] deals with HL-60(TB) leukemia.
The test system of test [9] is M14 melanoma.
Test [10] deals with MDA-MB-231 breast.

“And” between values parts separate entries of the source, which are not always exact repeats. Identical values can stand only once.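 Following 48 hours of exposure in 96-well plates, responses at five concentrations were used to interpolate endpoints linearly. GI50 = concentration required for 50% inhibition of growth. TGI is the concentration that stops growth completely.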

With `O=c1[nH]c(C2CCCCC2)nc2cc(Cl)ccc12`, the TGI in test [1], in test [2], in test [3], in test [4], in [5] and in test [6] was over 100 µM throughout. Moreover, the concentration for total growth inhibition (TGI) – broadly, the concentration giving total growth inhibition – in [7] is over 100 µM.
Regarding `Cc1ccccc1C(C#N)/C(=N/NC(=O)C(=O)NN)C(=O)Nc1cccc(C(F)(F)F)c1` (stereo not given), the TGI in test [1], in test [2], in test [3], in test [4], in test [5] and in [8] was over 100 µM throughout. For the same compound, the TGI in [9], in test [6] and in test [7] was over 100 µM throughout.
As to `CC(C)(C)C1CCN(C(=O)c2ccccc2)CC1`, the concentration for total growth inhibition (TGI) in [1], in [2], in test [4], in test [5], in test [8] and in test [9] was over 100 µM each time. Further, the concentration for total growth inhibition (TGI) in test [6] and in test [7] was over 100 µM each time.
Turning to `O=c1nc2[nH]nc(-c3ccccc3)c2n[nH]1`, the TGI in test [1], in test [2], in test [3], in test [4], in [8] and in test [9] was over 100 µM in each case. Also, the total growth inhibition concentration (TGI) in test [6] and in test [7] was over 100 µM each time.
For `O=CN/C=C/c1ccccc1O`, the TGI in test [1], in test [2], in [3], in [4], in test [5] and in test [8] was over 100 µM throughout. The TGI in test [9], in test [6] and in [7] was over 100 µM each time.
Take `O=S(=O)(c1ccccc1)C1CN(Cc2ccccc2)CCN(Cc2ccccc2)C1`: the total growth inhibition concentration (TGI) in [1] was over 100 µM; in test [2], over 100 µM; in [3] it was over 72.6 µM; in test [10], over 100 µM; in test [4], over 100 µM; in [5] it was over 100 µM. Moreover, the concentration for total growth inhibition (TGI) is 34.4 µM in [8], over 100 µM in test [9], over 100 µM in test [6] and over 100 µM in [7].
For the compound `COC(=O)C12OCC34C(CC5C(C)=CC(=O)C(O)C5(C)C3C(O)C1O)OC(=O)C(OC(=O)CC(C)C)C24` (stereo not given), the GI50 – broadly, the concentration at which growth is held to half of that of the control – in test [1] was 0.0612 µM; in test [2] it was 0.0562 µM and 0.316 µM; in test [5], under 0.0377 µM; in test [8], < 0.0417 µM and 0.05 µM; in [9] it was 0.0034 µM; in [6], under 0.0281 µM. In addition, the 50% growth inhibitory concentration (GI50) in test [7] was 0.00384 µM. The concentration for total growth inhibition (TGI) in [10] was 0.0247 µM; in [4], 0.0506 µM; in test [9] it was 0.0129 µM and 0.0689 µM; in test [7] it was 0.0825 µM and 0.104 µM.
With `COC(=O)c1cc(O)ccc1NC(=O)c1ccc(O)cc1`, the total growth inhibition concentration (TGI) in test [1], in test [2], in test [3], in test [4], in [5] and in test [8] was over 100 µM in each case. Further, the TGI in test [9], in test [6] and in test [7] was over 100 µM throughout.
Turning to `COc1cc([C@@H]2c3cc4c(cc3[C@@H](NC(=O)c3ccc([N+](=O)[O-])cc3)C3COC(=O)[C@@H]32)OCO4)cc(OC)c1O` (stereo not given in full), the TGI in test [1] was 6.55 µM; in [2], 6.61 µM; in test [3] it was over 100 µM; in test [5], 19 µM; in test [8], 0.407 µM; in test [9] it was over 100 µM. Further, the concentration for total growth inhibition (TGI) in test [6] was 3.44 µM; in [7], over 100 µM.
Regarding `[O-][N+]1=C(c2ccccc2)COc2ccccc21`, the TGI in [2], in [3], in test [4], in [5], in [8] and in [9] was over 100 µM throughout. In addition, the TGI in [6] and in [7] was over 100 µM throughout.
Consider `C/C(CC(=O)Nc1ccc([N+](=O)[O-])cc1)=N/N=C(N)N`, for which the TGI in test [1], in test [2], in test [5], in [8], in test [9] and in [6] was over 100 µM in each case. Further, the TGI in test [7] is over 100 µM.
Regarding `Cc1cc2c(=O)cc(-c3ccc(C(=O)O)cc3)oc2c(C(=O)O)c1C`, the TGI in test [1], in test [2], in test [3], in test [4], in [5] and in [8] was over 100 µM throughout. Further, the concentration for total growth inhibition (TGI) in test [9], in test [6] and in test [7] was over 100 µM each time.
In the case of `Clc1ccc(CCn2cncn2)c(Cl)c1`, the total growth inhibition concentration (TGI) in test [1], in test [3], in test [4], in [5], in test [8] and in test [9] was over 100 µM throughout. The TGI in test [6] and in [7] was over 100 µM each time.
As to `Cc1cc(NC(=O)C(=O)Cc2nc3ccccc3s2)ccc1Cl`, the concentration for total growth inhibition (TGI) in test [1], in test [2], in test [3], in [10], in test [4] and in [5] was over 100 µM in each case. In addition, the TGI in [9], in [6] and in test [7] was over 100 µM in each case.
As for `Cn1c(-c2ccccc2)c/c(=N\NS(C)(=O)=O)c2cc(S(=O)(=O)O)ccc21`, the TGI in test [1], in [2], in test [3], in test [4], in test [5] and in [8] was over 100 µM in each case. Further, the TGI in test [9], in [6] and in test [7] was over 100 µM throughout.
Regarding `C=C1CCC2C(C)(CO)C(O)CCC2(C)C1CC(O)C1=CCOC1=O` (stereo not given), the TGI in test [1] was over 100 µM; in [2] it was over 100 µM; in test [3], over 100 µM; in test [4], 65.9 µM; in [5], over 100 µM; in test [8], 85.9 µM. Further, the values for the TGI in test [9], in [6] and in [7] were over 100 µM, 40.8 µM and over 100 µM, respectively.
Turning to `O=[N+]([O-])c1ccc(C2N3CCCCC3[C@@H]3c4[nH]c5ccccc5c4CCN23)cc1` (stereo not given in full), the concentration for total growth inhibition (TGI) is over 100 µM in [1]; 33 µM in test [2]; over 100 µM in [3]; over 100 µM in test [4]; 24.4 µM in test [5]; over 100 µM in test [8]. In addition, the TGI in [9] is 38.9 µM; in [7], over 100 µM.
For the compound `O=C(CCc1cc(-c2ccco2)n(-c2ccc([N+](=O)[O-])cc2[N+](=O)[O-])n1)Nc1ccccc1`, the total growth inhibition concentration (TGI) in test [1], in test [2], in [3], in test [4], in test [5] and in [8] was over 100 µM each time. For the same compound, the total growth inhibition concentration (TGI) in test [9], in [6] and in [7] was over 100 µM throughout.
As for `COC(=O)/C(Cl)=C1/CC1COCc1ccccc1` (stereo not given), the TGI in [1] is over 10 µM; in test [2] it was 96.9 µM; in test [3] it was 84.2 µM; in test [5], 93.2 µM; in test [8] it was 38.7 µM; in test [9] it was 31.2 µM. The TGI in test [6] was over 10 µM; in [7], 31.1 µM.
Take `Cc1ccc(S(=O)(=O)NC(=O)Nc2nc(Cl)cc(Cl)n2)cc1`: the concentration for total growth inhibition (TGI) in test [1], in test [2], in test [3], in test [5], in [8] and in [9] was over 100 µM in each case. The total growth inhibition concentration (TGI) in [6] and in [7] was over 100 µM in each case.
For `O=C(Cc1nc2ccccc2s1)NC12CC3CC(CC(C3)C1)C2`, the TGI in test [1], in test [2], in [3], in test [4], in test [5] and in test [8] was over 100 µM in each case. The total growth inhibition concentration (TGI) in [9], in [6] and in test [7] was over 100 µM each time.
Take `COC(=O)CCC(=O)C(C#N)c1ccc(Cl)cc1Cl` (stereo not given): the concentration for total growth inhibition (TGI) in test [1], in test [2], in [4], in test [5], in test [8] and in test [9] was over 100 µM throughout. The concentration for total growth inhibition (TGI) in test [7] is over 100 µM.
As to `Cc1ccc(S(=O)(=O)C2=C3C(=C(c4ccccc4)c4ccccc43)CN(S(=O)(=O)c3ccc(C)cc3)C2)cc1`, the GI50 was 6.01 µM in test [1]; 6.1 µM in test [2]; 5.31 µM in test [3]; 2.9 µM in test [10]; 1.55 µM in [4]; 11.2 µM in test [8]. Also, the GI50 in test [9] was 5.63 µM; in [6], 22.5 µM. Further, the concentration for total growth inhibition (TGI) was over 100 µM in test [1]; 30.3 µM in test [2]; 72.9 µM in test [3]; 11.1 µM in [10]; 25.7 µM in [4]; over 100 µM in [8]. Also, the figures for the total growth inhibition concentration (TGI) in test [9] and in test [6] were 34.4 µM and over 100 µM, respectively.
Regarding `C/C(CN1C(=O)c2ccccc2C1=O)=N\NS(C)(=O)=O`, the TGI in [1], in [2], in [3], in test [5], in test [8] and in test [9] was over 100 µM in each case. Moreover, the TGI in [6] and in test [7] was over 100 µM each time.
For the compound `N#Cc1ccccc1/C=N/O`, the TGI in test [1] is over 100 µM; in test [3], over 100 µM; in test [4], over 100 µM; in test [5], over 100 µM; in test [8], over 62.2 µM; in test [9], over 100 µM. Further, the TGI in [6] and in test [7] was over 100 µM throughout.
On to `COc1ccc(C2SC(C)C(=O)N2NC(=O)C(O)c2ccccc2)cc1` (stereo not given), for which the GI50 in test [1] is over 100 µM; in test [2], over 100 µM; in test [3], over 100 µM; in test [10], over 100 µM; in [4], 63 µM; in test [8] it was over 100 µM. The GI50 in test [9] and in test [6] was over 100 µM each time. The total growth inhibition concentration (TGI) in test [1], in [2], in test [3], in test [10], in test [4] and in [8] was over 100 µM throughout. The TGI in test [9] and in [6] was over 100 µM each time.

The values above are taken from PubChem BioAssay (NCI).
